Molecular target: T1, human ERK-2 (Mitogen Activated Kinase 1) (Homo sapiens, UniProt P28482)
T1 construct: N-terminal 6-His fusion protein in E. coli and corresponding to aa 8-360; 6-His (N); made in house; host or cells: E. coli
Assay: ERK-2 Enzymatic Assay
Assay type: biochemical
Conditions: TABLE I; 5nM ERK-2 enzyme, 25µM ATP, S/T17 peptide substrate; single assay or mean of multiple assays
Description: Compounds were tested in an enzymatic assay using human ERK-2 (Mitogen Activated Kinase 1), recombinantly expressed as an N-terminal 6-His fusion protein in E. coli and corresponding to aa 8-360. The substrate used was the fluorescent Omnia peptide S/T17 (Invitrogen of Carlsbad, CA; Cat. KNZ1171C). Test compounds were diluted in DMSO in 3-fold serial dilutions at 100x final concentrations. […] The assay was run at ambient temperature in a white 384-well polypropylene plate (Nunc, Inc of Naperville, IL; Cat. 267462) collecting data every 50 seconds for approximately 30 minutes on an Envision plate reader (PerkinElmer, Inc. of Waltham, MA); Excitation 340 nm/Emission 495 nm. The data collected from each well was fit to a straight line and the resulting rates were used to calculate percent of control. Percent of control was plotted against compound concentration and IC50 values were determined using a four-parameter fit. Representative data is in TABLE I and TABLE II. The reported IC50 may be from a single assay or the mean of multiple assays.

T1 sequence (P28482 8-360): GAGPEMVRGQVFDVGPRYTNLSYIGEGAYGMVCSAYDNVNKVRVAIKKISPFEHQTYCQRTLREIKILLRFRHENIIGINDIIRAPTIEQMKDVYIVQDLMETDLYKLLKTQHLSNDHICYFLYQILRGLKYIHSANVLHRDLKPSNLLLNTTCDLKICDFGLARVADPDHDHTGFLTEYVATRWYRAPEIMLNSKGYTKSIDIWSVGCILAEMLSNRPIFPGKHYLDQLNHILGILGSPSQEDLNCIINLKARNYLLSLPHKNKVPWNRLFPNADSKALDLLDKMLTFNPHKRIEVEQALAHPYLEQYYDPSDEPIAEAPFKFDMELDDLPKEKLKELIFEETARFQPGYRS

In order of falling IC50:
1. O=C(N[C@H](c1ccc(F)c(Cl)c1)[C@@]1(F)CCNC1)c1ccc2cnc(NC3CCOCC3)nc2c1 [Compound I-37]  73.6 nM
2. COc1ccc([C@@H](NC(=O)c2cc(F)c3cnc(NC4CCOCC4)nc3c2)c2cnn(C)n2)cc1F [Compound I-54, 5-Fluoro-2-(tetrahydro-pyran-4-ylamino)-quinazoline-7-carboxylic acid [(R)-(3-fluoro-4-methoxy-phenyl)-(2-methyl-2H-[1,2,3]triazol-4-yl)-methyl]-amide]  31 nM
3. 2-(tetrahydro-pyran-4-ylamino)-quinazoline-7-carboxylic acid [(R)-(4-cyano-3-fluoro-phenyl)-(1-methyl-1H-pyrazol-4-yl)-methyl]-amide [Compound I-45]  22 nM
4. COCCNc1ncc2c(F)cc(C(=O)N[C@@H](c3ccc(OC)c(F)c3)c3cnn(C)c3)cc2n1 [Compound I-58, 5-Fluoro-2-(2-methoxy-ethylamino)-quinazoline-7-carboxylic acid [(S)-(3-fluoro-4-methoxy-phenyl)-(1-methyl-1H-pyrazol-4-yl)-methyl]-amide]  20 nM
5. Cn1cc([C@@H](NC(=O)c2ccc3cnc(N[C@@H]4CCOC[C@@H]4F)nc3c2)c2ccc(Cl)c(F)c2)cn1 [Compound I-27, 2-((3R,4R)-3-fluoro-tetrahydropyran-4-ylamino)-quinazoline-7-carboxylic acid [(S)-(4-chloro-3-fluoro-phenyl)-(1-methyl-1H-pyrazol-4-yl)-methyl]-amide]  15.8 nM
6. Cn1cc([C@@H](NC(=O)c2ccc3cnc(N[C@H]4CCO[C@H](CO)C4)nc3c2)c2ccc(Cl)c(F)c2)cn1 [Compound I-42, 2-((2S,4S)-2-hydroxymethyl-tetrahydro-pyran-4-ylamino)-quinazoline-7-carboxylic acid [(S)-(4-chloro-3-fluoro-phenyl)-(1-methyl-1H-pyrazol-4-yl)-methyl]-amide]  7.2 nM
7. Cn1ccc(C(NC(=O)c2ccc3cnc(NC4CCOCC4)nc3c2)c2ccc(Cl)c(F)c2)n1 (centres unmarked) [Compound I-4, 2-(tetrahydropyran-4-ylamino)-quinazoline-7-carboxylic acid [(4-chloro-3-fluoro-phenyl)-(1-methyl-1H-pyrazol-3-yl)-methyl]-amide]  5 nM
8. COc1ccc([C@H](NC(=O)c2ccc3cnc(N[C@H]4CCO[C@H](CO)C4)nc3c2)c2cnn(C)c2)cc1F [Compound I-46, N-((S)-(3-fluoro-4-methoxyphenyl)(1-methyl-1H-pyrazol-4-yl)methyl)-2-((2S,4S)-2-(hydroxymethyl)tetrahydro-2H-pyran-4-ylamino)quinazoline-7-carboxamide]  4.2 nM
9. COc1ccc([C@H](NC(=O)c2cc(F)c3cnc(N[C@@H]4CCOC4)nc3c2)c2cnn(C)c2)cc1F (stereo in doubt) [Compound I-62, 5-Fluoro-N-((S)-(3-fluoro-4-methoxyphenyl)(1-methyl-1H-pyrazol-4-yl)methyl)-2-((R)-tetrahydrofuran-3-ylamino)quinazoline-7-carboxamide]  4 nM
10. COc1ccc([C@H](NC(=O)c2cc(F)c3cnc(NCC4COC4)nc3c2)c2cnn(C)c2)cc1F [Compound I-63, 5-Fluoro-2-[(oxetan-3-ylmethyl)-amino]-quinazoline-7-carboxylic acid [(S)-(3-fluoro-4-methoxy-phenyl)-(1-methyl-1H-pyrazol-4-yl)-methyl]-amide]  4 nM
11. Cn1cc([C@@H](NC(=O)c2ccc3cnc(N[C@H]4CCOC[C@@H]4F)nc3c2)c2ccc(Cl)c(F)c2)cn1 [Compound I-29, 2-((3R,4S)-3-fluoro-tetrahydropyran-4-ylamino)-quinazoline-7-carboxylic acid [(S)-(4-chloro-3-fluoro-phenyl)-(1-methyl-1H-pyrazol-4-yl)-methyl]-amide]  3.8 nM
12. CN1CCC[C@@H]1[C@@H](NC(=O)c1ccc2cnc(NC3CCOCC3)nc2c1)c1ccc(C(F)(F)F)c(F)c1 [Compound I-17, 2-(Tetrahydropyran-4-ylamino)-quinazoline-7-carboxylic acid [(S)-(3-fluoro-4-trifluoromethyl-phenyl)-((R)-1-methyl-pyrrolidin-2-yl)-methyl]-amide]  2.8 nM
13. COc1ccc([C@H](NC(=O)c2cc(F)c3cnc(N[C@H]4CCOC[C@H]4F)nc3c2)c2cnn(C)c2)cc1F [Compound I-52, 5-fluoro-N-((S)-(3-fluoro-4-methoxyphenyl)(1-methyl-1H-pyrazol-4-yl)methyl)-2-((3S,4S)-3-fluorotetrahydro-2H-pyran-4-ylamino)quinazoline-7-carboxamide]  2.6 nM
14. Cn1cc([C@@H](NC(=O)c2ccc3cnc(N[C@@H]4CCOC[C@H]4F)nc3c2)c2ccc(Cl)c(F)c2)cn1 [Compound I-30, 2-((3S,4R)-3-fluoro-tetrahydropyran-4-ylamino)-quinazoline-7-carboxylic acid [(S)-(4-chloro-3-fluoro-phenyl)-(1-methyl-1H-pyrazol-4-yl)-methyl]-amide]  2.1 nM
15. COc1ccc([C@H](NC(=O)c2ccc3cnc(NC4CCOCC4)nc3c2)[C@H]2C[C@H](F)CN2)cc1F [Compound I-31, 2-(tetrahydropyran-4-ylamino)-quinazoline-7-carboxylic acid [(S)-(3-fluoro-4-methoxy-phenyl)-((2R,4S)-4-fluoro-pyrrolidin-2-yl)-methyl]-amide]  1.7 nM
16. Cn1cc([C@@H](NC(=O)c2cc(F)c3cnc(NC4CCOCC4)nc3c2)c2cccc(F)c2)cn1 [Compound I-68]  1.3 nM
17. Cn1cc([C@H](NC(=O)c2ccc3cnc(NC4CCOCC4)nc3c2)c2ccc(C#N)c(Cl)c2)cn1 (stereo in doubt) [Compound I-48, (R)-N-((3-chloro-4-cyanophenyl)(1-methyl-1H-pyrazol-4-yl)methyl)-2-(tetrahydro-2H-pyran-4-ylamino)quinazoline-7-carboxamide]  1.1 nM
18. COc1ccc([C@H](NC(=O)c2ccc3cnc(NC4CCOCC4)nc3c2)c2cnn(C)c2)cc1Cl [Compound I-44, 2-(tetrahydro-pyran-4-ylamino)-quinazoline-7-carboxylic acid [(S)-(3-chloro-4-methoxy-phenyl)-(1-methyl-1H-pyrazol-4-yl)-methyl]-amide]  1 nM
19. Cn1cc([C@@H](NC(=O)c2cc(F)c3cnc(NC4CCOCC4)nc3c2)c2ccc(C#N)c(Cl)c2)cn1 [Compound I-65, 5-Fluoro-2-(tetrahydro-pyran-4-ylamino)-quinazoline-7-carboxylic acid [(S)-(3-chloro-4-cyano-phenyl)-(1-methyl-1H-pyrazol-4-yl)-methyl]-amide]  0.6 nM

Same assay, conditions: TABLE II; 5nM ERK-2 enzyme, 25µM ATP, S/T17 peptide substrate; single assay or mean of multiple assays

In order of rising IC50:
1. COc1ccc([C@H](NC(=O)c2cc(F)c3cnc(NC4CCOCC4)nc3c2)c2cncn2C)cc1F [II-46]  1.1 nM
2. Cn1cc([C@@H](NC(=O)c2cc(F)c3cnc(NC4CCOCC4)nc3c2)c2cccc(F)c2)cn1 [II-12]  1.2 nM
3. COc1ccc([C@H](NC(=O)c2cc(F)c3cnc(NC4CCOCC4)nc3c2)c2cnco2)cc1F [II-47]  1.3 nM
4. COc1ccc([C@H](NC(=O)c2cc(F)c3cnc(NC4CCOCC4)nc3c2)c2cnnn2C)cc1F [II-48]  1.4 nM
5. COc1ccc([C@H](NC(=O)c2cc(F)c3cnc(Nc4ccnn4C)nc3c2)c2cncn2C)cc1F [II-53]  1.5 nM
6. COc1ccc([C@H](NC(=O)c2cc(F)c3cnc(NC4CCOCC4)nc3c2)c2ccnn2C)cc1F [II-29]  2.2 nM
7. COc1ccc([C@H](NC(=O)c2ccc3cnc(N[C@H]4CCOC[C@@H]4F)nc3c2)c2ccnn2C)cc1F [II-37]  3.6 nM
8. COc1ccc([C@H](NC(=O)c2cc(F)c3cnc(N[C@H]4C[C@@H](F)C4)nc3c2)c2cnn(C)c2)cc1F [II-33]  3.8 nM
9. COc1ccc([C@H](NC(=O)c2ccc3cnc(Nc4ccnc(C)c4)nc3c2)c2cnn(C)c2)cc1F [II-17]  4.8 nM
10. Cn1cc([C@@H](NC(=O)c2ccc3cnc(NC4CCOCC4)nc3c2)c2ccc(C(F)(F)F)c(F)c2)cn1 [II-41]  5.2 nM
11. COc1ccc([C@H](NC(=O)c2cc(F)c3cnc(Nc4cn(C)nc4C)nc3c2)c2cnn(C)c2)cc1F [II-19]  6.8 nM
12. O=C(N[C@@H](c1ccc(OC(F)(F)F)c(F)c1)C1CNCCO1)c1ccc2cnc(NC3CCOCC3)nc2c1 (some centres unmarked) [II-45]  6.9 nM
13. COc1ccc([C@H](NC(=O)c2cc(F)c3cnc(Nc4ccnn4C)nc3c2)c2nccn2C)cc1F [II-54]  8.5 nM
14. Cn1cc(C(NC(=O)c2ccc3cnc(NC4CCOCC4)nc3c2)c2ccc(OC(F)F)cc2)cn1 (centres unmarked) [II-43]  12.1 nM
15. Cc1cc(Nc2ncc3ccc(C(=O)N[C@@H](c4ccc(Cl)c(F)c4)c4cnn(C)c4)cc3n2)n(C)n1 [II-24]  14.6 nM
16. COc1ccc([C@H](NC(=O)c2cc(F)c3cnc(NC4CCOCC4)nc3c2)c2ncc[nH]2)cc1F [II-50]  59.1 nM
17. COc1ccnc(C(NC(=O)c2cc(F)c3cnc(NC4CCOCC4)nc3c2)c2cnn(C)c2)c1 (centres unmarked) [II-35]  61 nM
18. Cn1nccc1[C@@H](NC(=O)c1ccc2cnc(NC3CCOCC3)nc2c1)c1ccc(Cl)c(F)c1 [II-39]  151 nM
19. O=C(N[C@@H](c1ccc(OC(F)(F)F)c(F)c1)[C@H]1CCCNC1)c1ccc2cnc(NC3CCOCC3)nc2c1 [II-44]  216 nM
